Data taken from PubChem BioAssay AID1259407 (Chemical Carcinogenesis Research Information System (CCRIS), 2018).
Active and inactive are the calls of the source. No rule for the calls is given here.

Test system: CCRIS mutagenicity, Ames/micronucleus/aberration tests
Test: CCRIS mutagenicity studies
[1] = Test System: AMES SALMONELLA TYPHIMURIUM, Strain/Indicator: TA98, Metabolic Activation: NONE, Method: STANDARD PLATE
[2] = Test System: AMES SALMONELLA TYPHIMURIUM, Strain/Indicator: TA100, Metabolic Activation: NONE, Method: PREINCUBATION
[3] = Test System: AMES SALMONELLA TYPHIMURIUM, Strain/Indicator: TA1535, Metabolic Activation: NONE, Method: PREINCUBATION
[4] = Test System: AMES SALMONELLA TYPHIMURIUM, Strain/Indicator: TA1537, Metabolic Activation: NONE, Method: PREINCUBATION
[5] = Test System: AMES SALMONELLA TYPHIMURIUM, Strain/Indicator: TA98, Metabolic Activation: RAT, LIVER, S-9, AROCLOR 1254, Method: STANDARD PLATE

Measured: mutagenic call

O=[N+]([O-])c1ccc2cccc3c2c1C=C3
active: [1] active; positive

O=C1C=Cc2ccccc2C1=O
inactive: Test System: AMES SALMONELLA TYPHIMURIUM, Strain/Indicator: TA97, Metabolic Activation: RAT, LIVER, S-9, PHENOBARBITAL AND 5,6-BENZOFLAVONE, Method: PREINCUBATION inactive; negative | Test System: AMES SALMONELLA TYPHIMURIUM, Strain/Indicator: TA98, Metabolic Activation: RAT, LIVER, S-9, PHENOBARBITAL AND 5,6-BENZOFLAVONE, Method: PREINCUBATION inactive; negative | Test System: AMES SALMONELLA TYPHIMURIUM, Strain/Indicator: TA102, Metabolic Activation: RAT, LIVER, S-9, PHENOBARBITAL AND 5,6-BENZOFLAVONE, Method: PREINCUBATION inactive; negative | [3] inactive; negative | Test System: AMES SALMONELLA TYPHIMURIUM, Strain/Indicator: TA1535, Metabolic Activation: RAT, LIVER, S-9, PHENOBARBITAL AND 5,6-BENZOFLAVONE, Method: PREINCUBATION inactive; negative | [4] inactive; negative | Test System: AMES SALMONELLA TYPHIMURIUM, Strain/Indicator: TA1537, Metabolic Activation: RAT, LIVER, S-9, PHENOBARBITAL AND 5,6-BENZOFLAVONE, Method: PREINCUBATION inactive; negative | Test System: AMES SALMONELLA TYPHIMURIUM, Strain/Indicator: TA1538, Metabolic Activation: NONE, Method: PREINCUBATION inactive; negative | Test System: AMES SALMONELLA TYPHIMURIUM, Strain/Indicator: TA1538, Metabolic Activation: RAT, LIVER, S-9, PHENOBARBITAL AND 5,6-BENZOFLAVONE, Method: PREINCUBATION inactive; negative | Test System: AMES SALMONELLA TYPHIMURIUM, Strain/Indicator: TA2637, Metabolic Activation: RAT, LIVER, S-9, PHENOBARBITAL AND 5,6-BENZOFLAVONE, Method: PREINCUBATION inactive; negative
active: Test System: AMES SALMONELLA TYPHIMURIUM, Strain/Indicator: TA97, Metabolic Activation: NONE, Method: PREINCUBATION active; positive | Test System: AMES SALMONELLA TYPHIMURIUM, Strain/Indicator: TA97A, Metabolic Activation: NONE, Method: PREINCUBATION active; positive | [2] active; positive | Test System: AMES SALMONELLA TYPHIMURIUM, Strain/Indicator: TA100, Metabolic Activation: RAT, LIVER, S-9, PHENOBARBITAL AND 5,6-BENZOFLAVONE, Method: PREINCUBATION active; positive | Test System: AMES SALMONELLA TYPHIMURIUM, Strain/Indicator: TA104, Metabolic Activation: NONE, Method: PREINCUBATION active; positive | Test System: AMES SALMONELLA TYPHIMURIUM, Strain/Indicator: TA104, Metabolic Activation: RAT, LIVER, S-9, PHENOBARBITAL AND 5,6-BENZOFLAVONE, Method: PREINCUBATION active; positive | Test System: AMES SALMONELLA TYPHIMURIUM, Strain/Indicator: TA2637, Metabolic Activation: NONE, Method: PREINCUBATION active; positive

Nc1ccc2ccc3ccccc3c2c1
active: Test System: AMES SALMONELLA TYPHIMURIUM, Strain/Indicator: TA98, Metabolic Activation: RAT, LIVER, S-9, AROCLOR 1254 (2 OR 4%), Method: STANDARD PLATE active; positive | Test System: AMES SALMONELLA TYPHIMURIUM, Strain/Indicator: TA100, Metabolic Activation: RAT, LIVER, S-9, AROCLOR 1254 (2%), Method: STANDARD PLATE active; positive | Test System: AMES SALMONELLA TYPHIMURIUM, Strain/Indicator: TA1535, Metabolic Activation: RAT, LIVER, S-9, AROCLOR 1254 (2%), Method: STANDARD PLATE active; positive | Test System: AMES SALMONELLA TYPHIMURIUM, Strain/Indicator: TA1537, Metabolic Activation: RAT, LIVER, S-9, AROCLOR 1254 (2%), Method: STANDARD PLATE active; positive

CC(C)C(=O)N(O)c1ccc(Cl)cc1
active: [5] active; positive
inactive: [1] inactive; negative | Test System: AMES SALMONELLA TYPHIMURIUM, Strain/Indicator: TA100, Metabolic Activation: NONE, Method: STANDARD PLATE inactive; negative | Test System: AMES SALMONELLA TYPHIMURIUM, Strain/Indicator: TA100, Metabolic Activation: RAT, LIVER, S-9, AROCLOR 1254, Method: STANDARD PLATE inactive; negative

CC(C)(C)c1ccc(C(=O)O)cc1
inactive: Test System: Ames Salmonella typhimurium, Strain/Indicator: TA98, Metabolic Activation: None, Method: Preincubation inactive; negative | Test System: Ames Salmonella typhimurium, Strain/Indicator: TA98, Metabolic Activation: Rat, Liver, S9, Sodium phenobarbital and 5,6-benzoflavone (10%), Method: Preincubation inactive; negative | Test System: Ames Salmonella typhimurium, Strain/Indicator: TA100, Metabolic Activation: None, Method: Preincubation inactive; negative | Test System: Ames Salmonella typhimurium, Strain/Indicator: TA100, Metabolic Activation: Rat, Liver, S9, Sodium phenobarbital and 5,6-benzoflavone (10%), Method: Preincubation inactive; negative | Test System: Ames Salmonella typhimurium, Strain/Indicator: TA1535, Metabolic Activation: None, Method: Preincubation inactive; negative | Test System: Ames Salmonella typhimurium, Strain/Indicator: TA1535, Metabolic Activation: Rat, Liver, S9, Sodium phenobarbital and 5,6-benzoflavone (10%), Method: Preincubation inactive; negative | Test System: Ames Salmonella typhimurium, Strain/Indicator: TA1537, Metabolic Activation: None, Method: Preincubation inactive; negative | Test System: Ames Salmonella typhimurium, Strain/Indicator: TA1537, Metabolic Activation: Rat, Liver, S9, Sodium phenobarbital and 5,6-benzoflavone (10%), Method: Preincubation inactive; negative | Test System: E. coli, Strain/Indicator: WP2uvrA/pKM101, Metabolic Activation: None, Method: Preincubation inactive; negative | Test System: E. coli, Strain/Indicator: WP2uvrA/pKM101, Metabolic Activation: Rat, Liver, S9, Sodium phenobarbital and 5,6-benzoflavone (10%), Method: Preincubation inactive; negative

CC(C)CCC(C)Nc1ccc(NC(C)CCC(C)C)cc1 (centres undefined)
inactive: Test System: AMES SALMONELLA TYPHIMURIUM, Strain/Indicator: TA98, Metabolic Activation: HAMSTER, LIVER, S-9, AROCLOR 1254 (10%), Method: PREINCUBATION inactive; negative | Test System: AMES SALMONELLA TYPHIMURIUM, Strain/Indicator: TA98, Metabolic Activation: NONE, Method: PREINCUBATION inactive; negative | Test System: AMES SALMONELLA TYPHIMURIUM, Strain/Indicator: TA98, Metabolic Activation: RAT, LIVER, S-9, AROCLOR 1254 (10%), Method: PREINCUBATION inactive; negative | Test System: AMES SALMONELLA TYPHIMURIUM, Strain/Indicator: TA100, Metabolic Activation: HAMSTER, LIVER, S-9, AROCLOR 1254 (10%), Method: PREINCUBATION inactive; negative | [2] inactive; negative | Test System: AMES SALMONELLA TYPHIMURIUM, Strain/Indicator: TA100, Metabolic Activation: RAT, LIVER, S-9, AROCLOR 1254 (10%), Method: PREINCUBATION inactive; negative | Test System: AMES SALMONELLA TYPHIMURIUM, Strain/Indicator: TA1535, Metabolic Activation: HAMSTER, LIVER, S-9, AROCLOR 1254 (10%), Method: PREINCUBATION inactive; negative | [3] inactive; negative | Test System: AMES SALMONELLA TYPHIMURIUM, Strain/Indicator: TA1535, Metabolic Activation: RAT, LIVER, S-9, AROCLOR 1254 (10%), Method: PREINCUBATION inactive; negative | Test System: AMES SALMONELLA TYPHIMURIUM, Strain/Indicator: TA1537, Metabolic Activation: HAMSTER, LIVER, S-9, AROCLOR 1254 (10%), Method: PREINCUBATION inactive; negative | [4] inactive; negative | Test System: AMES SALMONELLA TYPHIMURIUM, Strain/Indicator: TA1537, Metabolic Activation: RAT, LIVER, S-9, AROCLOR 1254 (10%), Method: PREINCUBATION inactive; negative

Cc1nc2cc(C)c3c(nc(N)n3C)c2nc1C
active: [5] active; positive
